Assay results published in patent publication US20100143241A1, “Method and apparatus for delivery of agents across the blood brain barrier” (priority 2008, published 2010).

Legend:
blood-brain barrier = test: T1-weighted MRI contrast enhancement of the mouse brain after BBB opening with microbubbles and unfocused ultrasound; type: in vivo; conditions: for enhancement in CSF and brain parenchyma: Gd-DTPA 6.4 mmol/kg IP
From the text: Magnetic resonance images were acquired of a live mouse using a 7.0 T magnetic resonance system developed for magnetic resonance microscopy. […] IV injection of gadopentetate dimeglumine a standard magnetic resonance contrast agent results in enhancement of the muscles (FIG. 2b) but the brain remains dark. […] However, application of the ultrasound energy with the combination of Definity and gadopentetate dimeglumine opens the blood-brain barrier allowing the gadopentetate dimeglumine to actively stain the brain. Note in FIG. 2d the signal from the actively stained brain is nearly 5× (i.e., 5 fold or 5 times) stronger than it is in the unstained brain in FIG. 2a.
To open the BBB, 30 microliters of perflutren lipid microspheres (activated Definity) were injected through a tail vein catheter and simultaneously the ultrasound pulse sequence was initiated. The ultrasound was applied for 3 minutes.
(§1) To enhance the brain with MR contrast, Gd-DTPA (Magnevist, Bayer HealthCare Pharmaceuticals, Wayne, N.J.) was administered by intraperitoneal (IP) injection 10 minutes prior to BOMUS (FIG. 14b). […] The Gd-DTPA dose was 3.2, 6.4, or 9.5 mmol/kg, as noted later. After BOMUS, high-throughput MR images were acquired. Because Gd-DTPA is normally excluded by the BBB, opening of the BBB was indicated by contrast-enhancement on T1-weighted MRI.
For MRI, a 35 mm diameter quadrature transmit/receive volume coil (m2m Imaging Corp., Cleveland, Ohio) was used. The MR system was a 7 T horizontal bore magnet driven by a GE EXCITE console (General Electric Healthcare, Milwaukee, Wis.). MR images were acquired using either a high-throughput or high-resolution protocol. The high-throughput scan (3.2 minutes) used a 3D spoiled gradient recalled (SPGR) sequence with the following parameters: repetition time (TR)=25 ms; echo time (TE)=2 ms; flip angle (FA)=30 degrees; field of view (FOV)=20×20×12 mm; matrix=128×128×60; number of averages (NEX)=1. Data were acquired at a resolution of 156×156×200 micrometers.
High-resolution images were acquired with a similar 51 minute SPGR protocol: TR=25 ms; TE=3-4 ms; FA=15-22 degrees; FOV=20×20×8 mm; matrix=384×384×80; NEX=4. Data were acquired at a resolution of 52×52×100 micrometers.
To determine if the combination of unfocused ultrasound and microbubbles could be used to globally open the BBB, this treatment was compared to a variety of control scenarios (FIG. 16). […] However, co-administration of ultrasound and microbubbles globally opens the BBB, allowing the Gd-DTPA to enhance the brain. Animals received Gd-DTPA 6.4 mmol/kg IP 10 minutes prior to treatment, and T1-weighted images (high-throughput protocol) were acquired 20 minutes after treatment (FIG. 14b).

mouse brain = test: T1 estimation by spin echo MRI in mice given Gd-DTPA with or without BOMUS; type: in vivo
Method: as §1
T1 measurements were performed by acquiring a series of 2D spin echo images with varying TRs: TR=200, 400, 800, 1600, 3200, 6400, or 12800 ms; TE=7 ms; BW=31.25; slice thickness=1 mm; FOV=20×20 mm; matrix=128×128. T1 over a region of interest (ROI) was estimated using a three-parameter non-linear fit of the data to the following equation: I=m(1−[…])+a, where I is the mean ROI intensity and TR is the repetition time. The three terms that were fit were m, a multiplicative constant; a, an additive constant; and T1.
To measure the change in relaxivity due to the Gd-DTPA, T1 was estimated in ROIs selected from the cortex, basal ganglia and muscle (FIG. 21). In the control animal receiving neither Gd-DTPA nor BOMUS, T1 values were long in the cortex (2.08 s), basal ganglia (1.97 s), and muscle (2.01 s). In the animal given only Gd-DTPA, the muscle T1 shortened dramatically (0.71 s); but T1 was only shortened modestly in the cortex (1.53 s) and basal ganglia (1.56 s) because the intact BBB excluded the Gd-DTPA. However, in the BOMUS-treated animal, Gd-DTPA not only shortened T1 in the muscle (0.80 s), but Gd-DTPA also crossed the BBB and dramatically shortened T1 in the cortex (0.50 s) and basal ganglia (0.50 s).

[1] = in vivo; cited from earlier work
[2] = Gd-DTPA along with BOMUS, high-resolution SPGR, left anterior cortex
[3] = BOMUS-treated animal given Gd-DTPA
[4] = animal given only Gd-DTPA, no BOMUS, intact BBB

## CNC[C@H](O)[C@@H](O)[C@H](O)[C@H](O)CO.CNC[C@H](O)[C@@H](O)[C@H](O)[C@H](O)CO.O=C([O-])CN(CCN(CC(=O)[O-])CC(=O)O)CCN(CC(=O)[O-])CC(=O)O.[Gd+3] [Gd-DTPA, gadopentetate dimeglumine]
blood-brain barrier; both ultrasound and microbubbles simultaneously
  enhancement in CSF and brain parenchyma: dramatic enhancement in the CSF and brain parenchyma
blood-brain barrier; no treatment, only ultrasound, or only microbubbles
  enhancement in CSF and brain parenchyma: no enhancement in the cerebrospinal fluid (CSF) or in the brain parenchyma
blood-brain barrier; [2]
  increase in SNR over control mouse receiving no contrast agent: 90%
  increase in SNR over mouse receiving only Gd-DTPA: 63%
blood-brain barrier; IP injection, preliminary studies
  time post-injection within which most of the enhancement occurs: 10 to 15 min
blood-brain barrier; time-course of T1-weighted signal, up to 27 hours after BOMUS
  wash-out of brain staining after BOMUS: washes out within a day
blood-brain barrier; ultrasound with Definity and gadopentetate dimeglumine, 7.0 T, T1-weighted, FIG. 2
  signal of actively stained brain relative to unstained brain: ~5 ×
Mouse brain; [3]
  T1 in basal ganglia: 0.50 s
  T1 in cortex: 0.50 s
  T1 in muscle: 0.80 s
Mouse brain; Gd-DTPA with BOMUS, reduced from approximately 2000 ms
  T1 of brain after active staining: ~500 ms
Mouse brain; animal given only Gd-DTPA, no BOMUS
  T1 in muscle: 0.71 s
Mouse brain; [4]
  T1 in basal ganglia: 1.56 s
  T1 in cortex: 1.53 s
[1]
  half-life: 1.6 h
